As usually defined, the melting point is the temperature, or range, at which the solid turns liquid.

This note sets out measurements from patent US8461382B2, “Ionic liquids” (BASF SE, priority 2007, dated 2013).

Data set [1] in a line: Miscibility of the ionic liquid with water and organic solvents. In kind it is physicochemical. The procedure: (§1) The viscosity at 25° C. at a low shear rate is in the order of one million millipascal seconds.
(§2) Owing to the amphiphilic and thus solubilizing properties, the ionic liquid of example 6 has a wider solvent spectrum than conventional ionic liquids. Furthermore, it can be concluded that the ionic liquid of example 6 has structuring properties in water, organic solvents and in particular also in the pure state. Accordingly, it can serve, for example, as template in the mineralization processes (e.g. for mesoporous silicates). Furthermore, the ionic liquid of example 6 is liquid at room temperature (for melting point, see Table 1).

Data set [2] can be described thus: Decomposition point (commencement of decomposition) of 2,5,8,11-tetraoxatridecan-13-oates. In kind it is physicochemical. An excerpt: (§3) Melting and decomposition points (commencement of decomposition) and viscosities of various 2,5,8,11-tetraoxatridecan-13-oates.
The nature of data set [3]: Solubility experiments: salts and olive oil dissolved in TEGMECH2COONa. It counts as physicochemical. The procedure: Solubility experiments were carried out using the sodium 2,5,8,11-tetraoxatridecan-13-oate synthesized as described in example 1.
The solubility of olive oil in a concentration of up to 10% by weight in TEGMECH2COONa is particularly worthy of mention with regard to the environmental compatibility of the sodium salt.

The nature of data set [4]: Viscosity of the ionic liquids at 25° C. In kind it is physicochemical. The procedure: as §1, §3
^1All liquids examined behaved as Newtonian fluids

Data set [5] can be described thus: Electrical conductivity, fluorescence and surface tension measurements in aqueous solution. It counts as physicochemical. As to conditions: concluded from conductivity and fluorescence or surface tension measurements in aqueous medium.
Excerpt: as §2

As for `COCCOCCOCCOCC(=O)[O-].[Na+]` [Example 1, sodium 2,5,8,11-tetraoxatridecan-13-oate], in data set [1] (acetone), the Miscibility with acetone entry is on record as “miscible in any ratio”. In addition, the Miscibility with dichloromethane entry in data set [1] (dichloromethane) is “miscible in any ratio”. The “Miscibility with diethyl ether” value in data set [1] (diethyl ether) is “partially miscible”. The Miscibility with pentanol result in data set [1] (pentanol) is recorded as “miscible in any ratio”. The Miscibility with water entry in data set [1] was “miscible in any ratio”. Besides, the Decomposition point in data set [2] came out at 384 °C. In data set [3] (120° C.), the “Solubility of magnesium sulfate in the ionic liquid” value is on record as “appreciably soluble”. Also, in data set [3] (room temperature), the “Solubility of ammonium nitrate in the ionic liquid” value is given as “readily soluble”. The “Solubility of NaCl in the ionic liquid” value in data set [3] (temperatures above 100° C.) is listed as “dissolves in low concentrations”. In addition, the Viscosity in data set [4] (at 25° C.) is recorded as 1.64 · 10^5 mPa · s; in data set [4] (at 25° C. at a low shear rate, order of magnitude), “one million”.

`COCCOCCOCCOCC(=O)[O-].[K+]` [Example 3, potassium 2,5,8,11-tetraoxatridecan-13-oate] displayed a melting point of 59.1 °C. In data set [2], this compound yielded a Decomposition point of 369 °C.

Regarding `COCCOCCOCCOCC(=O)O` [Example 5, hexylammonium 2,5,8,11-tetraoxatridecan-13-oate], the “Character in aqueous solution” value in data set [5] is recorded as “hydrotropic character”. The Viscosity is 2.40 · 10^2 mPa · s in data set [4] (at 25° C.) and ~20 000 mPas in data set [4] (order of magnitude).

Compound `CCCCCCCCN.COCCOCCOCCOCC(=O)O` [Example 7] gave a Decomposition point in data set [2] of 145 °C. For the same compound, in data set [4] (at 25° C.), the Viscosity is recorded as 3.75 · 10^2 mPa · s.

With `CCCCCCCCCCN.COCCOCCOCCOCC(=O)O` [Example 8], in data set [2], the Decomposition point was found to be 156 °C. The Viscosity in data set [4] (at 25° C.) is recorded as 4.00 · 10^2 mPa · s.

“calcium di(2,5,8,11-tetraoxatridecan-13-oate) [Example 4]” gave a Decomposition point in data set [2] of 320 °C.

With “dodecylammonium 2,5,8,11-tetraoxatridecan-13-oate [Example 6]”, the Miscibility with water result in data set [1] was “mixes with water in any ratio”. Further, the Decomposition point in data set [2] worked out at 165 °C. The “Character in aqueous solution” value in data set [5] is “surfactant character”. For the same compound, the Viscosity in data set [4] (at 25° C.) is given as 4.67 · 10^2 mPa · s.
